Data on ten molecules can be found in paper PMC8999625, “Antiviral Effects of ABMA and DABMA against Influenza Virus In Vitro and In Vivo via Regulating the Endolysosomal Pathway and Autophagy” (International Journal of Molecular Sciences, 2022).

Each structure is given as a SMILES string. Entries after “also recorded” stand apart in the source; their conditions may differ. Where a name gives a salt, the structure may show the parent alone. Read-outs that look alike come from different tables or passages of the source.

The test system of data set [1] is A/NY/61/LV16A (H1N1). As to the kind of experiment: CPE inhibition assay. The class given is cell-based.
A further data set has as its system A/17/HK/2014/8296 (H3N2). As to the kind of experiment: CPE inhibition assay. The class given is cell-based.
Data set [2] relates to A/NY/61/LV16A (H1N1). As to the kind of experiment: Time of addition assay. The class given is cell-based, influenza virus.
The nature of data set [3]: in vitro. To be noted: human.
For data set [4], the system named is A/Maonan/SWL1536/2019 (H1N1). As to the kind of experiment: CPE inhibition assay. The class given is cell-based.
Data set [5] deals with A/NY/61/LV16A (H1N1). The class given is in vivo, BALB/c mice. The following applies: for survival rate: 5 mg/kg i.p. once daily for 6 days, H1N1 i.n., 14 days; for H1N1 virus titers in the lungs compared to placebo / lung histopathology changes (H&E) / lung index compared to placebo / lung viral load compared to placebo: mouse, in vivo, ip.
Data set [6] deals with influenza virus strains (H1N1, H3N2, influenza B virus). As to the kind of experiment: CPE inhibition assay, all influenza virus strains tested. The following applies: unidentified influenza virus; range over five strains, MDCK cells; read-out: EC50 values ranging, all influenza virus strains tested. The class given is cell-based.
Another data set relates to B/Washington/02/2019. As to the kind of experiment: CPE inhibition assay. The class given is cell-based.
Data set [7] relates to A/NY/61/LV16A (H1N1). As to the kind of experiment: Entry assay. The class given is cell-based, influenza virus.
In data set [8] the test system is A/NY/61/LV16A (H1N1). The class given is cell-based. The following applies: 15 μM, A549 cells, MOI = 1, 16 hpi, vs virus control.
Data set [9] relates to A/NY/61/LV16A (H1N1). As to the kind of experiment: Binding assay. The class given is cell-based, influenza virus.
The conditions of data set [10]: uninfected mice, 5 mg/kg i.p.
For data set [11], the system named is A/NY/61/LV16A (H1N1). As to the kind of experiment: Viral nucleoprotein (NP) by Western blotting. The class given is cell-based, influenza virus.
Data set [12] is described as follows: in vitro. To be noted: dog.
Data set [13] concerns A/NY/61/LV16A (H1N1). As to the kind of experiment: H1N1 RNA replication by qRT-PCR in MDCK cells. The class given is cell-based, influenza virus. (Real-time PCR tracks product formation cycle by cycle.)
For data set [14], the system named is A/NY/61/LV16A (H1N1). As to the kind of experiment: H1N1 NP mRNA by qRT-PCR in A549 cells treated with autophagy inhibitors. The class given is cell-based, influenza virus.
For the next data set, the system named is HSV-2. To be noted: cited from earlier work.
The next data set deals with Ebola virus. To be noted: cited from earlier work.
The subject of data set [15] is Corynebacterium diphtheriae. Set-up: method as in PMID 29138439. To be noted: cited from earlier work.
The nature of data set [16]: Cytotoxicity, CellTiter-Glo cell viability. The following applies: dog, uninfected MDCK cells. (Cellular ATP, detected with luciferase, serves as a proxy for viable cell number.)
The next data set relates to LC3B-II and p62. As to the kind of experiment: Autophagy markers by Western blotting in A549 cells. The class given is cell-based. To be noted: dose- and time-dependent. A general note: Immunoblotting shows a protein as a band on a membrane.
A further data set concerns Rab7. The class given is cell-based. To be noted: 15 µM, A549 cells, 3 hpi.
Setting [17] is: Influenza A virus, H1N1, MDCK; read-out: EC50 ± SD A/NY/61/LV16A (H1N1).
Setting [18] is: Influenza A virus, H3N2, MDCK; read-out: EC50 ± SD A/17/HK/2014/8296 (H3N2).
The mark [19] stands for this setting: Influenza A virus, H1N1, MDCK; read-out: EC50 ± SD A/Maonan/SWL1536/2019 (H1N1).
The mark [20] stands for this setting: Influenza A virus, H1N1; MDCK cells; read-out: EC90 (approximately).
Setting [21] is: Influenza B virus; B/M2; infected MDCK cells, MOI = 0.01, 48 hpi; read-out: EC50 ± SD B/Washington/02/2019.

On to `CCN(CC)CCCC(C)Nc1ccnc2cc(Cl)ccc12` (stereo not shown) [Chloroquine, reference compound], for which the EC50 with A/NY/61/LV16A (H1N1) [1] (setting [17]) came to 17.1 ± 2.27 µM; in the data set with A/17/HK/2014/8296 (H3N2) (setting [18]), 12 ± 1.26 µM.

In the case of `COc1ccc(Br)cc1CNC12CC3CC(C)(CC(C)(C3)C1)C2` [DABMA, 1,3-dimethyl-1-adamantyl (5-bromo-2-methoxybenzyl) amine], the “H1N1 RNA content, time of addition” value with A/NY/61/LV16A (H1N1) [2] is reported as “significantly reduced”. Also, in “in vitro [3]”, the CC50 amounted to 47.4 ± 1.68 µM. For the same molecule, the EC50 in [4] (setting [19]) amounted to 2.69 ± 0.26 µM. Besides, in the data set with A/NY/61/LV16A (H1N1) [5], the survival rate came out at 67%, the “H1N1 virus titers in the lungs compared to placebo” value is on record as “lower titers”, the “lung histopathology changes (H&E)” value was “significant reduction” and the “lung index compared to placebo” value is listed as “significantly reduced”. In addition, the “lung viral load compared to placebo” value in the data set on A/NY/61/LV16A (H1N1) [5] is “significantly reduced”. For the same molecule, in the data set on A/NY/61/LV16A (H1N1) [1] (setting [17]), the EC50 is 1.82 ± 0.11 µM. In addition, the EC90 (as a rule, the concentration at which the effect reaches the 90% level) with A/NY/61/LV16A (H1N1) [1] (setting [20]) was ~15 µM. Moreover, in data set [6], the EC50 fell in the range of 1.82 to 6.73 µM. Further, in the data set on B/Washington/02/2019 (setting [21]), the EC50 amounted to 6.62 ± 0.46 µM. Also, in the data set with A/NY/61/LV16A (H1N1) [7], the “entry stage of H1N1” value is listed as “significantly inhibited”. In the data set with A/NY/61/LV16A (H1N1) [8], the NP fluorescence signal entry is listed as “significantly decreased”. Besides, the “binding of the virus to cells” value with A/NY/61/LV16A (H1N1) [9] was “do not affect”. In data set [10], the “changes in animal behavior, lethargy and body weight” value is recorded as “No remarkable changes”. For the same molecule, the “NP expression levels (Western blot)” value in the data set on A/NY/61/LV16A (H1N1) [11] is on record as “reduced”. The CC50 at 72 h in the data set “in vitro [12]” worked out at 42.7 ± 1.46 µM. For the same molecule, the “inhibition of H1N1 RNA replication (qRT-PCR)” value in the data set on A/NY/61/LV16A (H1N1) [13] came out at 86.51%. The EC50 in the data set on A/17/HK/2014/8296 (H3N2) (setting [18]) is 6.73 ± 0.73 µM.

With `CO/C1=C\C(C)=C\[C@@H](C)[C@@H](O)[C@@H](C)C/C(C)=C/C=C/[C@H](OC)[C@@H]([C@@H](C)[C@@H](O)[C@H](C)[C@@]2(O)C[C@@H](O)[C@H](C)[C@@H](C(C)C)O2)OC1=O` [Baf A1, Bafilomycin A1, reference compound], the “H1N1 RNA content” value in the data set with A/NY/61/LV16A (H1N1) [14] is reported as “significantly decreased”. Also, the “NP expression levels (Western blot)” value in the data set with A/NY/61/LV16A (H1N1) [11] is recorded as “decreased”.

Take `Cn1cnc(N)c2ncnc1-2` [3-MA, 3-methyladenine]: the “H1N1 RNA content” value in the data set on A/NY/61/LV16A (H1N1) [14] was “significantly decreased”.

Consider `NC12CC3CC(CC(C3)C1)C2` [Amantadine, Amantadine hydrochloride], for which the EC50 in [4] (setting [19]) was 20.2 ± 1.36 µM; in the data set with A/NY/61/LV16A (H1N1) [1] (setting [17]) it was 9.97 ± 1.34 µM; in the data set with B/Washington/02/2019 (Influenza B virus, MDCK, read-out: EC50 ± SD B/Washington/02/2019), > 100 µM; with A/17/HK/2014/8296 (H3N2) (setting [18]), 8.27 ± 0.66 µM. The “activity against HSV-2 infection” value in the data set with HSV-2 is “inactive”. Besides, the “activity against Ebola virus” value in the data set with Ebola virus was “inactive”. Besides, the “antiviral activity against B/Washington/02/2019 (IBV)” value in the data set on B/Washington/02/2019 is recorded as “did not show antiviral activity; also recorded: no significant protection”. Moreover, the “activity against Corynebacterium diphtheriae” value in data set [15] was “inactive”. In addition, the CC50 in the data set “in vitro [12]” stood at 477 ± 39.5 µM.

In the case of `CCOC(=O)C1=C[C@@H](OC(CC)CC)[C@H](NC(C)=O)[C@@H](N)C1` [Oseltamivir, Oseltamivir phosphate], the EC50 in data set [4] (setting [19]) worked out at 2.95 ± 0.21 µM; in the data set on A/NY/61/LV16A (H1N1) [1] (setting [17]) it was 7.97 ± 0.85 µM; in the data set with B/Washington/02/2019 (Influenza B virus, MDCK; read-out: EC50 ± SD B/Washington/02/2019) it was 8.53 ± 1.64 µM; with A/17/HK/2014/8296 (H3N2) (setting [18]), 7.3 ± 0.79 µM. The CC50 at 72 h in the data set “in vitro [12]” is 1890 ± 71.8 µM.

In the case of `CC(N)C12CC3CC(CC(C3)C1)C2` (stereo not shown) [1-(1-adamantyl) ethylamine], the “activity against HSV-2 infection” value with HSV-2 is “inactive”. In addition, in the data set with Ebola virus, the “activity against Ebola virus” value was “inactive”. For the same molecule, in data set [15], the “activity against Corynebacterium diphtheriae” value was “inactive”.

In the case of `CC12CC3CC(C)(C1)CC(N)(C3)C2` [memantine], the “activity against HSV-2 infection” value in the data set on HSV-2 was “inactive”. Also, the “activity against Ebola virus” value with Ebola virus is “inactive”. In addition, in data set [15], the “activity against Corynebacterium diphtheriae” value is “inactive”.

Consider `NC(=O)c1ncn([C@@H]2O[C@H](CO)[C@@H](O)[C@H]2O)n1` [Ribavirin, ribavirin], for which the EC50 in [4] (Influenza A virus, H1N1, MDCK, read-out: EC50 ± SD A/Maonan/SWL1536/2019 (H1N1)) is 3.2 ± 0.34 µM; in the data set with A/NY/61/LV16A (H1N1) [1] (Influenza A virus, H1N1, MDCK, read-out: EC50 ± SD A/NY/61/LV16A (H1N1)), 1.61 ± 0.62 µM; in the data set on B/Washington/02/2019 (setting [21]), 3.02 ± 0.39 µM; in the data set on A/17/HK/2014/8296 (H3N2) (Influenza A virus, H3N2, MDCK, read-out: EC50 ± SD A/17/HK/2014/8296 (H3N2)), 0.13 ± 0.04 µM. Also, the CC50 at 72 h in data set [16] is 5480 ± 255 µM.

With `COc1ccc(Br)cc1CNC12CC3CC(CC(C3)C1)C2` [ABMA, 1-adamantyl (5-bromo-2-methoxybenzyl) amine], the “H1N1 RNA content, time of addition” value in the data set with A/NY/61/LV16A (H1N1) [2] was “significantly reduced”. The CC50 in “in vitro [3]” turned out to be 83.8 ± 1.92 µM. The EC50 in [4] (setting [19]) is 4.57 ± 0.33 µM. Besides, in the data set on LC3B-II and p62, the LC3B-II level result is recorded as “increased” and the p62 level entry was “increased”. In the data set with A/NY/61/LV16A (H1N1) [5], the survival rate came out at 67%, the “H1N1 virus titers in the lungs compared to placebo” value is reported as “lower titers”, the “lung histopathology changes (H&E)” value is recorded as “significant reduction” and the “lung index compared to placebo” value is reported as “significantly reduced”. The “lung viral load compared to placebo” value in the data set with A/NY/61/LV16A (H1N1) [5] is listed as “significantly reduced”. In addition, the Rab7 protein fluorescence entry in the data set on Rab7 was “largely increased”. Also, in the data set with A/NY/61/LV16A (H1N1) [1] (setting [17]), the EC50 came to 3.25 ± 0.17 µM. In the data set on A/NY/61/LV16A (H1N1) [1] (setting [20]), the EC90 is ~15 µM. For the same molecule, the EC50 in [6] was 2.83 to 7.36 µM. Also, in the data set with B/Washington/02/2019 (setting [21]), the EC50 came to 7.36 ± 0.65 µM. Besides, in the data set on A/NY/61/LV16A (H1N1) [7], the “entry stage of H1N1” value was “significantly inhibited”. For the same molecule, the NP fluorescence signal result in the data set on A/NY/61/LV16A (H1N1) [8] is on record as “significantly decreased”. Moreover, the “binding of the virus to cells” value with A/NY/61/LV16A (H1N1) [9] is “do not affect”. For the same molecule, the “changes in animal behavior, lethargy and body weight” value in data set [10] is given as “No remarkable changes”. Besides, the “NP expression levels (Western blot)” value in the data set with A/NY/61/LV16A (H1N1) [11] is “reduced; also recorded: decreased”. Further, the CC50 at 72 h in “in vitro [12]” was 72.3 ± 1.09 µM. The “inhibition of H1N1 RNA replication (qRT-PCR)” value in the data set on A/NY/61/LV16A (H1N1) [13] came to 81.77%. For the same molecule, in the data set on A/17/HK/2014/8296 (H3N2) (setting [18]), the EC50 was 5.58 ± 0.38 µM.
